Patent US20260015341A1, “PI3K INHIBITOR, PREPARATION METHOD THEREFOR, AND USE THEREOF” (HINOVA PHARMACEUTICALS INC., priority 2022, published 2026)

Legend:
[1] = biological target: PI3Kα[WT]/[E542K]/[E545K]/[H1047R]/PI3Kβ/γ/δ; experiment: PI3K enzyme activity assay (ADP-Glo); format: biochemical; conditions: PI3K kinase reaction, isoform not given
Protocol: Experimental Example 1: PI3Kα[WT]/[E542K]/[E545K]/[H1047R]/PI3Kβ/γ/δ Enzyme Activity Assay
PI3Kα[WT], PI3Kα[E542K], PI3Kα[E545K], PI3Kα[H1047R], PI3Kβ, PI3Kγ and PI3Kδ kinase reaction was performed in 384-well plate (PerkinElmer, #6008280), with a reaction system of 4 μL. PI3Kα[WT] enzyme solution (Promega, #V1721) or PI3Kα[E542K] enzyme solution (CarnaBio, #11-413-20N) or PI3Kα[E545K] enzyme solution (CarnaBio, #11-414-20N) or PI3Kα[H1047R] enzyme solution (Promega, #V1741) or PI3Kβ enzyme solution (Promega, #V1751) or PI3Kγ enzyme solution (ThermoFisher, #PV4786) or PI3Kδ enzyme solution (ThermoFisher, #PV6451) were added to 384-well plate, and then gradiently diluted compounds were added (starting at a final concentration of 10 μM, 3-fold dilution, 10 doses), followed by adding PIP2: 3PS (Promega, #V1701) and ATP solution (Promega, #V915B) to the plate. After incubation at 25° C. for 1 h, ADP-Glo reagent buffer (Promega, #V9102) was added to each well. The plate was sealed and incubated at 25° C. for 40 min, and then 10 μL of ADP-Glo detection buffer (Promega, #V9102) was added to each well. After incubating at 25° C. for 40 min, the chemiluminescence value was read using an instrument.
The experimental results are shown in the ADP Glo IC50 column in Table 2.

MCF-10A cells = experiment: Inhibitory effects on the proliferation of MCF-10A cells (CCK8); format: cell-based; conditions: 6 days
Protocol: Experimental Example 2: Experiment of Inhibitory Effects on the Proliferation of MCF-10A Cells
MCF-10A cells (Cobioer Bio. #CBP60419MCF) were diluted with complete medium (Cobioer Bio. #CBP60419), seeded in 96-well plate (Corning #3599) at 500 cells/well, and then cultured for 24 h. Then, gradiently diluted compounds were added (starting at a final concentration of 10 μM, 3-fold dilution, 9 dose concentrations), and the final volume was adjusted to 100 μL/well. The plate was incubated at 37° C. under 5% CO2 for 6 days. After the cultivation was completed, CCK8 reagent (Signalway Antibody Bio. #CP002) was added at 10 μL/well, and then the plate was further incubated at 37° C. under 5% CO2 for 2-3 hours. The OD450 nm value was obtained by a microplate reader.
The results are shown in the MCF-OA IC50 column in Table 2.

T47D cells = experiment: Inhibitory effects on the proliferation of T47D cells (CellTiter-Glo); format: cell-based; conditions: 7 days
Protocol: Experimental Example 3: Experiment of Inhibitory Effects on the Proliferation of T47D Cells
T47D cells (ATCC. #HTB-133) were diluted with RPMI 1640 (Gibco #22400-089) containing 10% FBS (Hyclone #SH30084.03), seeded in 96-well plate (Biosharp #BS-MP-96W) at 1000 cells/well, and then cultured for 24 h. Then, gradiently diluted compounds were added (starting at a final concentration of 10 μM, 3-fold dilution, 9 dose concentrations), and the final volume was adjusted to 150 μL/well. The plate was incubated at 37° C. under […] for 7 days. After the cultivation was completed, CellTiter-Glo reagent (Promega #G7573) was added at 75 μL/well, and then the plate was further incubated at 25° C. for 10 min. After that, the chemiluminescence value was read using an instrument.
The results are shown in the T47D IC50 column in Table 2.

SMILES: Cc1cc([C@@H](C)Nc2ccc(Cl)nc2C(=O)O)c2nc(-c3cc(F)ccc3F)n(C)c(=O)c2c1 [Compound 60]
- IC50 [1]: < 1 µM
- IC50 (MCF-10A cells; Homo sapiens, 144 h): > 5 µM
- IC50 (T47D cells; Homo sapiens, 168 h): < 1 µM

SMILES: Cc1cc([C@@H](C)Nc2cccc(F)c2C(=O)O)c2nc(-c3ccc(F)cn3)n(C)c(=O)c2c1 [Compound 70]
- IC50 [1]: < 1 µM
- IC50 (MCF-10A cells; Homo sapiens, 144 h): > 5 µM
- IC50 (T47D cells; Homo sapiens, 168 h): 1 to 5 µM

SMILES: Cc1cc([C@@H](C)NC2CCC(=O)NC2=O)c2oc(-c3ccc(F)cc3F)cc(=O)c2c1 (some centres unmarked) [Compound 117]
- IC50 [1]: > 5 µM
- IC50 (MCF-10A cells; Homo sapiens, 144 h): > 5 µM
- IC50 (T47D cells; Homo sapiens, 168 h): > 5 µM

SMILES: Cc1cc([C@@H](C)Nc2ccccc2C(=O)O)c2[nH]c(-c3ccc(F)cn3)[n+](C)c(=O)c2c1 [Compound 69]
- IC50 [1]: < 1 µM
- IC50 (MCF-10A cells): > 5 µM
- IC50 (T47D cells): < 1 µM

SMILES: Cc1cc([C@@H](C)Nc2ccc[nH]c2=O)c2oc(-c3ccc(F)cc3F)cc(=O)c2c1 [Compound 62]
- IC50 [1]: < 1 µM
- IC50 (MCF-10A cells; Homo sapiens, 144 h): > 5 µM
- IC50 (T47D cells; Homo sapiens, 168 h): 1 to 5 µM

SMILES: Cc1cc([C@@H](C)Nc2ccccc2C(=O)O)c2nc(-c3c(F)cccc3F)n(C)c(=O)c2c1 [Compound 37, (R)-2-((1-(2-(2,6-difluorophenyl)-3,6-dimethyl-4-oxo-3,4-dihydroquinazolin-8-yl)ethyl)amino)benzoic Acid]
- IC50 [1]: < 1 µM

SMILES: Cc1cc([C@@H](C)Nc2ccccc2C(=O)O)c2oc(-c3ccc4c(c3)OC(F)(F)O4)cc(=O)c2c1 [Compound 43]
- IC50 [1]: < 1 µM
- IC50 (MCF-10A cells; Homo sapiens, 144 h): > 5 µM
- IC50 (T47D cells; Homo sapiens, 168 h): < 1 µM

SMILES: C[C@@H](Nc1ccc(Cl)nc1C(=O)O)c1cc(F)cc2c(=O)n(C)c(-c3ncccn3)nc12 [Compound 100]
- IC50 [1]: < 1 µM
- IC50 (MCF-10A cells; Homo sapiens, 144 h): > 5 µM
- IC50 (T47D cells; Homo sapiens, 168 h): < 1 µM

SMILES: Cc1cc([C@@H](C)Nc2ccccc2S(N)(=O)=O)c2oc(-c3ccc(F)cc3F)cc(=O)c2c1 [Compound 27, (R)-2-((1-(2-(2,4-difluorophenyl)-6-methyl-4-oxo-4H-chromen-8-yl)ethyl)amino)benzenesulfonamide]
- IC50 [1]: > 5 µM
- IC50 (MCF-10A cells; Homo sapiens, 144 h): > 5 µM
- IC50 (T47D cells; Homo sapiens, 168 h): > 5 µM

SMILES: C[C@@H](Nc1ccc(Cl)nc1C(=O)O)c1cc(F)cc2c(=O)n(C)c(-c3ncc(Cl)cn3)nc12 [Compound 99]
- IC50 [1]: < 1 µM
- IC50 (MCF-10A cells; Homo sapiens, 144 h): > 5 µM
- IC50 (T47D cells; Homo sapiens, 168 h): < 1 µM

SMILES: C[C@@H](Nc1cccc(F)c1C(=O)O)c1cc(F)cc2c(=O)n(C)c(-c3ccc(F)cn3)nc12 [Compound 73]
- IC50 [1]: < 1 µM
- IC50 (MCF-10A cells; Homo sapiens, 144 h): > 5 µM
- IC50 (T47D cells; Homo sapiens, 168 h): 1 to 5 µM

SMILES: Cc1cc([C@@H](C)Nc2ccc(Cl)nc2C(=O)O)c2nc(-c3ccc(F)cc3F)n(C)c(=O)c2c1 [Compound 44]
- IC50 [1]: < 1 µM
- IC50 (MCF-10A cells; Homo sapiens, 144 h): > 5 µM
- IC50 (T47D cells; Homo sapiens, 168 h): < 1 µM

SMILES: Cc1cc([C@@H](C)Nc2ccc(Cl)nc2C(=O)O)c2nc(-c3c(C)nn(C)c3C)n(C)c(=O)c2c1 [Compound 53]
- IC50 [1]: < 1 µM
- IC50 (MCF-10A cells; Homo sapiens, 144 h): 1 to 5 µM
- IC50 (T47D cells; Homo sapiens, 168 h): < 1 µM

SMILES: COC(=O)c1nc(Cl)ccc1N[C@H](C)c1cc(C)cc2c(=O)n(C)c(-c3ccncc3)nc12 [Compound 103]
- IC50 [1]: < 1 µM
- IC50 (MCF-10A cells; Homo sapiens, 144 h): > 5 µM
- IC50 (T47D cells; Homo sapiens, 168 h): < 1 µM

SMILES: Cc1cc([C@@H](C)Nc2ccnn2C)c2oc(-c3ccc(F)cc3F)cc(=O)c2c1 [Compound 42]
- IC50 [1]: 1 to 5 µM

SMILES: Cc1cc([C@@H](C)Nc2ccccc2C(=O)O)c2nc(N3CCC(C)(C)CC3)n(C)c(=O)c2c1 [Compound 6, (R)-2-((1-(2-(4,4-dimethylpiperidin-1-yl)-3,6-dimethyl-4-oxo-3,4-dihydroquinazolin-8-yl)ethyl)amino)benzoic Acid]
- IC50 [1]: < 1 µM
- IC50 (T47D cells; Homo sapiens, 168 h): < 1 µM

SMILES: Cc1cc([C@@H](C)Nc2ccccc2C(=O)O)c2nc(-c3ccc(F)cc3F)n(C)c(=O)c2c1 [Compound 45]
- IC50 [1]: < 1 µM
- IC50 (MCF-10A cells; Homo sapiens, 144 h): > 5 µM
- IC50 (T47D cells; Homo sapiens, 168 h): < 1 µM

SMILES: Cc1cc([C@@H](C)Nc2ccccc2C(=O)O)c2nc(-c3ccc(F)cc3)n(C)c(=O)c2c1 [Compound 61]
- IC50 [1]: < 1 µM
- IC50 (MCF-10A cells; Homo sapiens, 144 h): > 5 µM
- IC50 (T47D cells; Homo sapiens, 168 h): < 1 µM

SMILES: Cc1cc([C@@H](C)Nc2ccccc2C(=O)O)c2nc(-c3ccc(F)cc3F)cc(=O)n2c1 [Compound 41, (R)-2-((1-(2-(2,4-difluorophenyl)-7-methyl-4-oxo-4H-pyrido[1,2-a]pyrimidin-9-yl)ethyl)amino)benzoic Acid]
- IC50 [1]: < 1 µM
- IC50 (MCF-10A cells; Homo sapiens, 144 h): > 5 µM
- IC50 (T47D cells; Homo sapiens, 168 h): 1 to 5 µM

SMILES: Cc1cc([C@@H](C)Nc2ccccc2C(=O)O)c2nc(N3CCC(C)(C)CC3)[nH]c(=O)c2c1 [Compound 4, (R)-2-((1-(2-(4,4-dimethylpiperidin-1-yl)-6-dimethyl-4-oxo-3,4-dihydroquinazolin-8-yl)ethyl)amino)benzoic Acid]
- IC50 [1]: 1 to 5 µM

SMILES: Cc1cc([C@@H](C)Nc2ccccc2C(=O)O)c2nc(-c3cc(F)ccc3F)n(C)c(=O)c2c1 [Compound 59]
- IC50 [1]: < 1 µM
- IC50 (MCF-10A cells; Homo sapiens, 144 h): > 5 µM
- IC50 (T47D cells; Homo sapiens, 168 h): < 1 µM

SMILES: Cc1cc([C@@H](C)N[S@+]([O-])C(C)(C)C)c2nc(N3CCC(C)(C)CC3)n(C)c(=O)c2c1 [Compound 5]
- IC50 [1]: 1 to 5 µM

SMILES: Cc1cc([C@@H](C)Nc2ccc(Cl)nc2C(=O)O)c2nc(-c3ncc(Cl)cn3)n(C)c(=O)c2c1 [Compound 96]
- IC50 [1]: < 1 µM

SMILES: Cc1cc([C@@H](C)Nc2cccc(F)c2C(=O)O)c2nc(-c3ccc(C(F)(F)F)cn3)n(C)c(=O)c2c1 [Compound 71]
- IC50 [1]: 1 to 5 µM
- IC50 (MCF-10A cells; Homo sapiens, 144 h): > 5 µM
- IC50 (T47D cells; Homo sapiens, 168 h): > 5 µM

SMILES: C[C@@H](Nc1ccc(Cl)cc1C(=O)O)c1cc(F)cc2c(=O)n(C)c(-c3ccc(F)cn3)nc12 [Compound 80]
- IC50 [1]: < 1 µM
- IC50 (MCF-10A cells; Homo sapiens, 144 h): > 5 µM
- IC50 (T47D cells; Homo sapiens, 168 h): < 1 µM

SMILES: Cc1cc([C@@H](C)Nc2ccccc2NS(C)(=O)=O)c2oc(-c3ccc(F)cc3F)cc(=O)c2c1 [Compound 28]
- IC50 [1]: 1 to 5 µM
- IC50 (MCF-10A cells; Homo sapiens, 144 h): > 5 µM
- IC50 (T47D cells; Homo sapiens, 168 h): < 1 µM

SMILES: Cc1cc([C@@H](C)Nc2ccc(Cl)nc2C(=O)O)c2oc(-c3ccc4c(c3)OC(F)(F)O4)cc(=O)c2c1 [Compound 46]
- IC50 [1]: < 1 µM
- IC50 (MCF-10A cells; Homo sapiens, 144 h): > 5 µM
- IC50 (T47D cells; Homo sapiens, 168 h): < 1 µM

SMILES: C[C@@H](Nc1ccc(F)cc1C(=O)O)c1cc(F)cc2c(=O)n(C)c(-c3ccc(F)cn3)nc12 [Compound 77]
- IC50 [1]: < 1 µM
- IC50 (MCF-10A cells; Homo sapiens, 144 h): > 5 µM
- IC50 (T47D cells; Homo sapiens, 168 h): < 1 µM

SMILES: Cc1cc([C@@H](C)Nc2ccccc2C(=O)O)c2nc(-c3c(C)noc3C)n(C)c(=O)c2c1 [Compound 51]
- IC50 (MCF-10A cells; Homo sapiens, 144 h): > 5 µM
- IC50 (T47D cells; Homo sapiens, 168 h): > 5 µM

SMILES: Cc1ccc(N[C@H](C)c2cc(C)cc3c(=O)n(C)c(-c4c(F)cccc4F)nc23)c(C(=O)O)c1 [Compound 38]
- IC50 [1]: < 1 µM

SMILES: C[C@@H](Nc1ccccc1C(=O)O)c1cc(F)cc2c(=O)n(C)c(-c3ccc(F)cn3)nc12 [Compound 76]
- IC50 (MCF-10A cells; Homo sapiens, 144 h): > 5 µM
- IC50 (T47D cells; Homo sapiens, 168 h): 1 to 5 µM

SMILES: C[C@@H](Nc1sccc1C(=O)O)c1cc(F)cc2c(=O)n(C)c(-c3ccc(F)cn3)nc12 [Compound 84]
- IC50 (MCF-10A cells; Homo sapiens, 144 h): > 5 µM
- IC50 (T47D cells; Homo sapiens, 168 h): > 5 µM
